# Experiments:
# Assay type in all cases: in vivo, swine
# gilts [1] = test: Example 5: ovulation monitoring by transrectal ultrasonography after 100, 200 or 400 mcg triptorelin gel at 120 h post-MATRIX; conditions: 400 mcg T (n = 6 catheterized gilts)
# gilts [2] = test: Example 5: estrus detection after 100, 200 or 400 mcg triptorelin gel; conditions: raw average, PTK 2-07
# Method: (§1) All gilts were individually fed MATRIX® as a top-dress for 14 or 15 days at the recommended rate of 15 mg/gilt/day. Gilts were withdrawn from MATRIX® feeding (last top-dress in the morning on Day 0) and allocated to each of the following treatments. Controls were vehicle gel treated (vehicle gel without triptorelin) at 120 (+/−2) hours following MATRIX® withdrawal (last top dress). The other gilts were given 100, 200 or 400 mcg triptorelin as the acetate in a methylcellulose gel formulation 120 (+/−2) hours following MATRIX® withdrawal. The four treatments were:
# For post-treatment estrus detection, gilts were housed in individual pens. Boars were housed in separate rooms, and/or at least 12 m away and downwind. To elicit signs of estrus, a mature boar was walked slowly in the alley in front of the gilts' crates, exposing each test gilt to visual, auditory and olfactory signals from the boar for up to 5 minutes. In keeping with standard practice at commercial farms, while the boar was near the front of the gilt's crate, estrus was tested by an experienced person applying back pressure to the midsection of the gilt combined with side rubbing. Estrus was confirmed when a gilt stood rigidly to the back pressure, with no vocalization and with some indication of an ear reflex. Gilts were not exposed to boars during the first three days after withdrawal of MATRIX® (Day 0 to Day 2). Estrus detection was performed daily on all gilts from Day 3 to Day 7.
# (§2) A single 2 mL dose of triptorelin gel or vehicle gel was deposited within approximately 1-2 cm posterior to the cervix with a catheter similar to those used for artificial insemination. The dose was delivered using a standard multi-dose applicator attached to the catheter. A new disposable sheath, which surrounds the catheter, was used for each gilt.
# gilts [3] = test: Example 5: ovulation monitoring by transrectal ultrasonography after 100, 200 or 400 mcg triptorelin gel at 120 h post-MATRIX; conditions: for Percentage ovulated by 48 hours: after treatment; for Time at which ovulation detected: relative to time of triptorelin gel treatment, Least Squares Mean ± SE; for % of Sows Ovulating / Interval from MATRIX Withdrawal to Ovulation: raw average, PTK 2-07
# Method: as §1
# 2. TG 100: 100 mcg (2 mL 50 mcg/mL) triptorelin gel at 120 (+/−2) hours after MATRIX® withdrawal.
# 3. TG 200: 200 mcg (2 mL 100 mcg/mL) triptorelin gel at 120 (+/−2) hours after MATRIX® withdrawal.
# 4. TG 400: 400 mcg (2 mL 200 mcg/mL) triptorelin gel at 120 (+/−2) hours after MATRIX® withdrawal.
# Ovulation was monitored twice on Day 5 (8 hours and 16 hours post-treatment) and every 8 hours on Day 6 and Day 7 or until ovulation was confirmed or 176 hours following last MATRIX® feeding. The ovulatory status of all gilts was monitored by transrectal ultrasonography. An Aloka 500 ultrasound machine is used for this purpose, with a 7.5 MHz linear array transducer attached to a fixed-angle PVC stabilizing rod to facilitate insertion into the rectum. The transducer and PVC rod are coated with a gynecological lubricant and gently inserted into the rectum until the ovaries can be visualized, one at a time. The diameters of the three largest follicles were recorded (to the nearest 0.1 mm) at each scanning. A gilt was declared to have ovulated when the number of large follicles (≥6.5 mm) fell to less than 3.
# as §2
# gilts [4] = test: Example 1: estrus detection after triptorelin gel at 96, 120 or 144 h after last MATRIX feeding; conditions: raw average, PTK 1-07 (rep 3); 200 mcg T at 120 h after MATRIX withdrawal
# Method: All gilts were individually fed MATRIX® as a top-dress for 14 days at the recommended rate of 15 mg/gilt/day. Gilts were withdrawn from MATRIX® feeding (last top feed in the morning on Day 0) and allotted to treatments. Controls were treated with a 1.2% methylcellulose gel formulation without triptorelin at 96 hours following MATRIX® withdrawal (last top-dress). The remaining gilts received 200 mcg triptorelin, as the acetate, in a 1.2% methylcellulose gel formulation intravaginally at various times after MATRIX® withdrawal. The four treatments were: 1) vehicle gel (VG) treatment at 96 hours after MATRIX® withdrawal, 2) triptorelin gel (TG) treatment at 96 hours after MATRIX® withdrawal, 3) TG treatment at 120 hours after MATRIX® withdrawal and 4) TG treatment at 144 hours after MATRIX® withdrawal. All gilts were monitored for their estrous and ovulatory status as described below. Gilts included in replicate 1 were selected from terminal line commercial production gilts located in grow/finish barns. Sexual maturity, as indicated by one or more estrous periods, was not verified prior to the start of MATRIX® feeding. Gilts included in replicate 2 were selected from a maternal line gilt population. Sexual maturity was verified by at least one estrous period verified and recorded prior to starting MATRIX® feeding. […]
# Data were analyzed using the Mixed Models procedures of SAS. […]
# [5] = 100 mcg T at 120 h after MATRIX withdrawal
# [6] = 200 mcg T at 120 h after MATRIX withdrawal
# [7] = 400 mcg T at 120 h after MATRIX withdrawal
# [8] = 100 mcg T (n = 6 catheterized gilts)
# [9] = 200 mcg T (n = 7 catheterized gilts)
compound,measurement,setting,value
"CC(C)C[C@H](NC(=O)[C@@H](Cc1c[nH]c2ccccc12)NC(=O)[C@H](Cc1ccc(O)cc1)NC(=O)[C@H](CO)NC(=O)[C@H](Cc1c[nH]c2ccccc12)NC(=O)[C@H](Cc1c[nH]cn1)NC(=O)[C@@H]1CCC(=O)N1)C(=O)N[C@@H](CCCNC(=N)N)C(=O)N1CCC[C@H]1C(=O)NCC(N)=O [T, pGlu-His-Trp-Ser-Tyr-D-Trp-Leu-Arg-Pro-Gly-NH2]",Percentage ovulated by 48 hours,gilts [1]; after treatment,100%
same,Time at which ovulation detected,"gilts [1]; relative to time of triptorelin gel treatment, Least Squares Mean ± SE",40 ± 8 h
same,Estrous Expression (%),gilts [2]; [5],75.0%
same,Interval from MATRIX withdrawal to Estrus,gilts [2]; [5],134.4 h
same,Estrous Expression (%),gilts [2]; [6],81.0%
same,Interval from MATRIX withdrawal to Estrus,gilts [2]; [6],136.9 h
same,Estrous Expression (%),gilts [2]; [7],86.4%
same,Interval from MATRIX withdrawal to Estrus,gilts [2]; [7],133.9 h
same,Percentage ovulated by 48 hours,gilts [3]; [8],100%
same,Time at which ovulation detected,gilts [3]; [8],40 ± 10 h
same,Percentage ovulated by 48 hours,gilts [3]; [9],100%
same,Time at which ovulation detected,gilts [3]; [9],34 ± 9 h
same,% of Sows Ovulating,"gilts [3]; 100 mcg T at 120 h, 128 h post-MATRIX, 8 h post-T",0.0%
same,% of Sows Ovulating,"gilts [3]; 100 mcg T at 120 h, 136 h post-MATRIX, 16 h post-T",5.0%
same,% of Sows Ovulating,"gilts [3]; 100 mcg T at 120 h, 144 h post-MATRIX, 24 h post-T",20.0%
same,% of Sows Ovulating,"gilts [3]; 100 mcg T at 120 h, 152 h post-MATRIX, 32 h post-T",30.0%
same,% of Sows Ovulating,"gilts [3]; 100 mcg T at 120 h, 160 h post-MATRIX, 40 h post-T",60.0%
same,% of Sows Ovulating,"gilts [3]; 100 mcg T at 120 h, 168 h post-MATRIX, 48 h post-T",95.0%
same,% of Sows Ovulating,"gilts [3]; 100 mcg T at 120 h, 176 h post-MATRIX, 56 h post-T",100.0%
same,Interval from MATRIX Withdrawal to Ovulation,gilts [3]; [5],159.2
same,% of Sows Ovulating,"gilts [3]; 200 mcg T at 120 h, 128 h post-MATRIX, 8 h post-T",0.0%
same,% of Sows Ovulating,"gilts [3]; 200 mcg T at 120 h, 136 h post-MATRIX, 16 h post-T",0.0%
same,% of Sows Ovulating,"gilts [3]; 200 mcg T at 120 h, 144 h post-MATRIX, 24 h post-T",23.8%
same,% of Sows Ovulating,"gilts [3]; 200 mcg T at 120 h, 152 h post-MATRIX, 32 h post-T",33.3%
same,% of Sows Ovulating,"gilts [3]; 200 mcg T at 120 h, 160 h post-MATRIX, 40 h post-T",52.4%
same,% of Sows Ovulating,"gilts [3]; 200 mcg T at 120 h, 168 h post-MATRIX, 48 h post-T",95.2%
same,% of Sows Ovulating,"gilts [3]; 200 mcg T at 120 h, 176 h post-MATRIX, 56 h post-T",95.2%
same,Interval from MATRIX Withdrawal to Ovulation,gilts [3]; [6],158.8
same,% of Sows Ovulating,"gilts [3]; 400 mcg T at 120 h, 128 h post-MATRIX, 8 h post-T",4.5%
same,% of Sows Ovulating,"gilts [3]; 400 mcg T at 120 h, 136 h post-MATRIX, 16 h post-T",9.1%
same,% of Sows Ovulating,"gilts [3]; 400 mcg T at 120 h, 144 h post-MATRIX, 24 h post-T",22.7%
same,% of Sows Ovulating,"gilts [3]; 400 mcg T at 120 h, 152 h post-MATRIX, 32 h post-T",36.4%
same,% of Sows Ovulating,"gilts [3]; 400 mcg T at 120 h, 160 h post-MATRIX, 40 h post-T",63.6%
same,% of Sows Ovulating,"gilts [3]; 400 mcg T at 120 h, 168 h post-MATRIX, 48 h post-T",100.0%
same,% of Sows Ovulating,"gilts [3]; 400 mcg T at 120 h, 176 h post-MATRIX, 56 h post-T",100.0%
same,Interval from MATRIX Withdrawal to Ovulation,gilts [3]; [7],157.1
same,Estrous Expression (%),gilts [4],100.0%
same,Interval from MATRIX withdrawal to Estrus,gilts [4],129.6 h

# — US10376558B2, “Method and compositions for synchronizing time of insemination in gilts” (UNITED-AH II, LLC, priority 2012, dated 2019)
